Laboratory results published in patent US20100132057A1, “GENETICALLY MODIFIED ANIMAL FOR USE IN EVALUATING HARMFULNESS OF TEST SUBSTANCE” (priority 2008, published 2010).

Legend:
[1] = system: reporter (luciferase) gene under AhR-binding enhancer of the TH gene and TH gene promoter in primary neuronal cells; assay: Luciferase luminescence in primary neuronal cells isolated from genetically modified mouse during exposure to TCDD; format: cell-based; conditions: 24 hours, FIG. 9; for increase in the degree of luminescence from the unexposed case: primary neuronal cells of mouse #176 embryos (E12)
Description: Another embodiment of the invention is directed to a method that includes isolating primary neuronal cells from the genetically modified mouse, exposing the primary neuronal cells to a test substance, and then measuring the expression of the reporter gene in the cells to evaluate the effect of the test substance on the central nervous system. When the reporter gene is a firefly luciferase gene, the method may include isolating primary neuronal cells from the genetically modified mouse, exposing the primary neuronal cells to a test substance, collecting the cells to extract proteins therefrom 2 to 72 hours after the exposure, adding luciferin, a substrate for the luciferase, to the liquid extract, and measuring luminescence derived from the enzyme activity of the luciferase with a luminometer.
The genetically modified mouse #176 (hetero, male) was mated with a wild-type mouse, and 12 days after the observation of the plug, the brain was removed from the embryo (E12: an embryonic age of 12 days) under a sterile environment. All the removed embryonic brains were collected, and 0.25% trypsin was added thereto and incubated at 37° C. for 15 minutes. The trypsin was removed. After washed tree times with the Hank's solution, the cells were suspended in a serum-containing DF 1:1 medium (Dulbecco-F12 equal-ratio mixture medium+10% fetal bovine serum). […]
[…] The resulting extracted protein solution was used in the measurement of luciferase luminescence. In the luciferase luminescence measurement, 100 μl of an assay solution (PicaGene Assay Kit, Toyo B-Net Co., Ltd.) was added to 10 μl of the collected protein solution and stirred, and immediately after the stirring, the degree of luminescence per 2 minutes was measured with a luminometer LB-940 (Berthold). The resulting degree of luminescence was divided by the total protein amount of the protein solution so that it was converted into a relative luminescence intensity (RLU/min/μg protein). The total protein amount of the solution was measured with a protein assay kit (Bio-Rad).

[2] = system: reporter (luciferase) gene under AhR-binding enhancer of the TH gene and TH gene promoter; assay: Luciferase luminescence in genetically modified mouse during exposure to βNF (IVIS imaging); format: in vivo
Protocol: When the reporter gene is a firefly luciferase gene, the method may include administering luciferin, a substrate for the luciferase, by intraperitoneal injection to the genetically modified mouse 6 to 72 hours after the administration of the test substance to the genetically modified mouse and measuring luminescence derived from the individual or derived from the enzyme activity of the luciferase in the brain with a luminescence measurement system such as an In-Vivo Imaging System (IVIS), manufactured by Xenogen Corporation.
A dioxin analog, β-naphthoflavone (βNF), was used as a test substance. A solution of βNF in corn oil was intraperitoneally injected at a βNF dose of 40 mg/kg into each of the genetically modified mice #176 (4 weeks old), #177 (6 weeks old) and #184 (6 weeks old) in the T1 generation. The same amount of corn oil as the amount of the solution in the βNF-administered group was intraperitoneally administered to each of the control group mice (the genetically modified mice in the T1 generation). […] After 5 minutes, an In-Vivo Imaging System (IVIS 100-series), manufactured by Xenogen Corporation, was used to detect luciferase luminescence in the mice. […] In addition, the brain of the genetically modified mouse #176 was cut in the vicinity of the midbrain, and luminescence from the cut section was measured with the IVIS System.

Compound	change in the degree of luminescence with TCDD concentration ([1]; TCDD 0, 0.1 or 10 ng/ml, primary neuronal cells of mouse #176 embryos)	increase in the degree of luminescence from the unexposed case ([1]; exposure to 0.1 nM TCDD)	increase in the degree of luminescence from the unexposed case ([1]; exposure to 10 ng/ml TCDD)	luciferase luminescence in the mice ([2]; genetically modified mice #176, #177, #184 (T1 generation), βNF 40 mg/kg intraperitoneal in corn oil, 72 hours after administration, whole-body IVIS, FIG. 6)	degree of luminescence from cut brain section ([2]; genetically modified mouse #176, βNF 40 mg/kg intraperitoneal, brain cut in the vicinity of the midbrain, IVIS, FIG. 7)
Clc1cc2c(cc1Cl)Oc1cc(Cl)c(Cl)cc1O2 [TCDD, 2,3,7,8-tetrachlorodibenzo-p-dioxin]	TCDD concentration-dependent increase in the degree of luminescence	1.3 times	3.1 times		
O=c1cc(-c2ccccc2)oc2ccc3ccccc3c12 [βNF, β-naphthoflavone]				luciferase luminescence was observed in all the genetically modified mice	an increase in the degree of luminescence was detected in the vicinity of the midbrain or hippocampus
